From PMC11889159 (Scientific Reports, 2025)
“And” between values parts separate entries of the source, which are not always exact repeats. Equal values may be shown once. Read-outs that look alike come from different tables or passages of the source.

What was measured:
[1] = target: T1, bovine serum albumin (BSA) (Bos taurus, UniProt P02769); experiment: biochemical
Text: The inner filter effect (IFE) arises when high analyte concentrations (e.g., fluorophores, ligands, or biomolecules) attenuate excitation light or absorb emitted photons, effectively reducing the optical path length and consequently causing depressed fluorescence readings. To mitigate this phenomenon in our experimental system, we strategically optimized sample concentrations through preliminary calibration studies.
Fluorescence quenching mechanisms can be categorized into static, dynamic, and combined quenching. […] Combined quenching involves both mechanisms, where the fluorophore collides with and forms a stable complex with the quencher. These processes can be described by the Stern-Volmer equation[49]: [drawing 1]
Where F0 and F are the fluorescence intensities in the absence and presence of the quencher, respectively; KSV is the Stern-Volmer quenching constant; [Q] is the quencher concentration; Kq is the bimolecular quenching constant; and τ0 is the fluorescence lifetime in the absence of the quencher (6.3 × 10^− 9 s)[50]. […] (unit: mol/L), and the Y-axis represents the fluorescence intensity ratio F0/F. The data points represent the experimentally measured F0/F values, while the solid line is the linear fit. […] The slope obtained from the linear fit according to the Stern-Volmer equation represents the quenching constant (KSV).
The binding constant (Kb) is calculated using the following formula: […]
Where Kb is the binding constant, n is the number of binding sites per BSA molecule, F0 and F are the fluorescence intensities without and with the quencher, respectively, and [Q] is the quencher concentration. Linear regression is used to fit the data, resulting in a straight line whose slope indicates n (the number of binding sites), and the intercept gives logKb.
Where R is 8.314 J·mol^-1·K^-1, T is 298 K (273 + 25 °C), and Kb is the calculated binding constant.
Fluorescence spectra were acquired using a Hitachi F-7100 fluorescence spectrophotometer equipped with a 150 W xenon lamp and 10 mm quartz cuvette. The instrument parameters were maintained at excitation and emission bandwidths of 10 nm, with a scanning speed of 1200 nm·min^− 1 and PMT voltage of 400 V throughout the experiments.

[2] = target: T1, bovine serum albumin (BSA)
Procedure: UV absorption measurement is a simple yet effective technique for examining structural changes and complex formation. […] Variations in the absorbance near 280 nm signify interactions with small molecule drugs.
Absorption spectra were recorded using a UV-vis spectrophotometer (T6 New Century) over the wavelength range of 200–400 nm.

[3] = target: T1, bovine serum albumin (BSA); settings: for λex/λem: pH 7.4
Text: Three-dimensional fluorescence spectroscopy, or excitation-emission matrix (EEM) spectroscopy, offers distinct advantages and broad applications for analyzing interactions between small molecules and BSA[55].
The excitation wavelength was systematically scanned from 220 to 350 nm with 5 nm increments, while the emission spectra were simultaneously recorded across the 220–500 nm range at a scanning speed of 12,000 nm min^− 1. The excitation and emission slit widths were maintained at 10 nm throughout the measurements to ensure consistent spectral resolution.

[4] = target: T1, bovine serum albumin (BSA); experiment: biochemical; settings: logKb
[5] = target: T1, bovine serum albumin (BSA); settings: for τave (average fluorescence lifetime): free BSA 3.72 ns
Text: In general, the fluorescence lifetime measurement is the most definitive method to distinguish between dynamic and static quenching.

[6] = target: T1, bovine serum albumin (BSA); experiment: Job's method, stoichiometry of inclusion complexation with BSA; format: binding; settings: [BSA] + [TPT] = 2.0 × 10^-6 mol/L, λex 295 nm
[7] = target: T1, bovine serum albumin (BSA); settings: van't Hoff plot, 293, 298 and 310 K, pH 7.4
[8] = design: method as in none printed; settings: prolonged circulation; species and source not given; cited from earlier work
[9] = target: T1, bovine serum albumin (BSA); experiment: biochemical; settings: LogKb, pH 7.4
[10] = target: T1, bovine serum albumin (BSA); settings: experimental ΔG versus docking ΔG at Site I
Procedure: The three-dimensional structure of BSA was obtained from the RCSB Protein Data Bank (PDB) database (https://www.rcsb.org/) (PDB ID: 4f5s). […] Open Babel 3.1.1 software was utilized to convert the sdf format files from the PubChem database to pdb format. […] Additionally, the molecular visualization was conducted using Pymol version 2.6.0a0 for 3D visualization and LigPlot + version 2.2.8 for 2D visualization.

[11] = BSA 2 × 10^-6 mol/L, drug 0–33 × 10^-6 mol/L, pH 7.4, 298.15 K
[12] = BSA 2 × 10^-6 mol/L, pH 7.4, 298.15 K
[13] = BSA 2 × 10^-6 mol/L, phosphate buffer pH 7.40, λex 295 nm
[14] = slope of double logarithmic plot, 298 K
[15] = BSA 1.0 × 10^-6 mol/L, drug 5.0 × 10^-6 mol/L
[16] = BSA 1.0 × 10^-6 mol/L, drug 5.0 × 10^-6 mol/L, phosphate buffer, 298.15 K
[17] = drug:BSA 5:1, Peak 1, BSA 3 × 10^-6 mol/L
[18] = drug:BSA 5:1, Peak 1, BSA alone 9750
[19] = drug:BSA 5:1, Peak 1, blue shift
[20] = drug:BSA 5:1, Peak 2, BSA 3 × 10^-6 mol/L
[21] = drug:BSA 5:1, Peak 2, BSA alone 7937
[22] = drug:BSA 5:1, Peak 2, blue shift
[23] = drug:BSA 10:1, Peak 1, BSA 3 × 10^-6 mol/L
[24] = drug:BSA 10:1, Peak 1, BSA alone 9750
[25] = drug:BSA 10:1, Peak 1, blue shift
[26] = drug:BSA 10:1, Peak 2, BSA 3 × 10^-6 mol/L
[27] = drug:BSA 10:1, Peak 2, BSA alone 7937
[28] = drug:BSA 10:1, Peak 2, blue shift
[29] = Site marker: Blank (no marker), BSA 1.0 × 10^-6 mol/L
[30] = Site marker: Ibuprofen 2 × 10^-6 mol/L, BSA 1.0 × 10^-6 mol/L
[31] = Site marker: Warfarin 2 × 10^-6 mol/L, BSA 1.0 × 10^-6 mol/L
[32] = BSA 1 × 10^-6 mol/L, drug 5 × 10^-6 mol/L, λex 295 nm, λem 350 nm
[33] = BSA 1 × 10^-6 mol/L, drug 5 × 10^-6 mol/L

T1 sequence (P02769 25-607): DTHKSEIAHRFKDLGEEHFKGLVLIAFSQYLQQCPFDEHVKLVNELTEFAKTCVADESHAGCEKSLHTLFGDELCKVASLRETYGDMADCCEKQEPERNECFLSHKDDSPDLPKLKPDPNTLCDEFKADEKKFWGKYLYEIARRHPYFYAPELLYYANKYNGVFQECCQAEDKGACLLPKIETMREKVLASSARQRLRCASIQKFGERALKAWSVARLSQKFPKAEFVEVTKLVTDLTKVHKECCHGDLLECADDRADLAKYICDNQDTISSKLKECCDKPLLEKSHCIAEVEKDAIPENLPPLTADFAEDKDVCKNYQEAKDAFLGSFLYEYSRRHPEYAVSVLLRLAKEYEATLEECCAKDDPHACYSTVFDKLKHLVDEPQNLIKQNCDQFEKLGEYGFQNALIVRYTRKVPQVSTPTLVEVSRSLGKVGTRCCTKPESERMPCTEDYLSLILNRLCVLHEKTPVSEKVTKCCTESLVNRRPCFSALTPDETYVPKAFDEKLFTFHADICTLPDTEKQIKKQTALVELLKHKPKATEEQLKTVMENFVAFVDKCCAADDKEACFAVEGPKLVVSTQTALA

Question: Which Kd [1] does the source give for `CC[C@@]1(O)C(=O)OCc2c1cc1n(c2=O)Cc2cc3ccccc3nc2-1` [CPT, Camptothecin] here?
Answer: 236 µM

Question: What about the “Stern–Volmer equation Slope” value [1, 11] of the same compound?
Answer: 18536.73 ± 2298.23

Question: What about the “Ksv (Stern-Volmer quenching constant)” value [1, 12] of the same compound?
Answer: 18.53 ×10^3 L·mol^− 1

Question: And the “blue shift of the maximum fluorescence emission peak of BSA (Δλmax)” value [1, 13]?
Answer: 1.4 nm

Question: And the “Kq (bimolecular quenching constant)” value ([1]; Kq = KSV/τ0, τ0 6.3 × 10^-9 s)?
Answer: 29.41 ×10^11 L·mol^− 1·s^− 1

Question: And the “n (number of binding sites per BSA molecule)” value [1, 14]?
Answer: 0.8287

Question: And the “blue shift of the UV absorption peak of BSA at 280 nm” value [2, 15]?
Answer: 3 nm

Question: What about the “Changes in absorption peaks (280 nm)” value [2, 16] of the same compound?
Answer: 280 nm→277 nm

Question: And the “Reduction percent (fluorescence intensity)” value (“Reduction percent” for short) ([3]; drug:BSA 5:1, Peak 1)?
Answer: 65%

Question: And the λex/λem [3, 17]?
Answer: 275/340

Question: What about the Intensity [3, 18] of the same compound?
Answer: 3382

Question: What about the Emission maximum shift [3, 19] of the same compound?
Answer: 0 nm

Question: What about the “Reduction percent” value ([3]; drug:BSA 5:1, Peak 2) of the same compound?
Answer: 30%

Question: And the λex/λem [3, 20]?
Answer: 225/340

Question: What about the Intensity [3, 21] of the same compound?
Answer: 5518

Question: What about the Emission maximum shift [3, 22] of the same compound?
Answer: 0 nm

Question: And the “Reduction percent” value ([3]; drug:BSA 10:1, Peak 1)?
Answer: 67%

Question: And the λex/λem [3, 23]?
Answer: 275/340

Question: And the Intensity [3, 24]?
Answer: 3179

Question: What about the Emission maximum shift [3, 25] of the same compound?
Answer: 0 nm

Question: What about the “Reduction percent” value ([3]; drug:BSA 10:1, Peak 2) of the same compound?
Answer: 33%

Question: What about the λex/λem [3, 26] of the same compound?
Answer: 225/340

Question: What about the Intensity [3, 27] of the same compound?
Answer: 5323

Question: And the Emission maximum shift [3, 28]?
Answer: 0 nm

Question: And the Kd [4, 29]?
Answer: 234 µM

Question: And the Kd [4, 30]?
Answer: 759 µM

Question: And the Kd [4, 31]?
Answer: 5500 µM

Question: What about the “A1 (decay amplitude)” value [5, 32] of the same compound?
Answer: 0.7855

Question: What about the “A2 (decay amplitude)” value [5, 32] of the same compound?
Answer: 0.2263

Question: What about the τ1 [5, 32] of the same compound?
Answer: 1.889 ns

Question: What about the τ2 [5, 32] of the same compound?
Answer: 5.78 ns

Question: What about the “τave (average fluorescence lifetime)” value [5, 33] of the same compound?
Answer: 3.71 ns

Question: What does the source list for `CC[C@@]1(O)C(=O)OCc2c1cc1n(c2=O)Cc2cc3c(CN(C)C)c(O)ccc3nc2-1` [TPT, Topotecan]?
Answer: molar fraction at maximum fluorescence intensity change (Job's plot) [6]: 0.5; ΔS [7]: 0.066 kJ·mol^− 1·K^− 1; Kd [1]: 11 µM; Stern–Volmer equation Slope [1, 11]: 29101.32 ± 782.38; Ksv (Stern-Volmer quenching constant) [1, 12]: 29.10 ×10^3 L·mol^− 1; blue shift of the maximum fluorescence emission peak of BSA (Δλmax) [1, 13]: 1.0 nm; Kq (bimolecular quenching constant) ([1]; Kq = KSV/τ0, τ0 6.3 × 10^-9 s): 46.19 ×10^11 L·mol^− 1·s^− 1; KSV ([1]; as quoted in the discussion of Table 2): 29.10 × 10^2 M^− 1; n (number of binding sites per BSA molecule) [1, 14]: 1.1165; blue shift of the UV absorption peak of BSA at 280 nm [2, 15]: 12 nm; Changes in absorption peaks (280 nm) [2, 16]: 280 nm→268 nm; λex/λem [3, 17]: 275/340; Intensity [3, 18]: 8453; Emission maximum shift [3, 19]: 0 nm; λex/λem [3, 20]: 225/340; Intensity [3, 21]: 5380; Emission maximum shift [3, 22]: 0 nm; λex/λem [3, 23]: 275/325; Intensity [3, 24]: 4956; Emission maximum shift [3, 25]: 15 nm; λex/λem [3, 26]: 225/320; Intensity [3, 27]: 2777; Emission maximum shift [3, 28]: 20 nm; circulation t1/2 [8]: ≈ 8 h; Kd ([9]; 293 K): 3.98 µM; Kd ([9]; 298 K): 4.37 µM; Kd ([9]; 310 K): 5.13 µM; Kd [4]: 12.6 µM and 6.61 µM and 12 µM; A1 (decay amplitude) [5, 32]: 0.8636; A2 (decay amplitude) [5, 32]: 0.1543; τ1 [5, 32]: 1.699 ns; τ2 [5, 32]: 7.6602 ns; τave (average fluorescence lifetime) [5, 33]: 4.36 ns

Question: For `CCc1c2c(nc3ccc(OC(=O)N4CCC(N5CCCCC5)CC4)cc13)-c1cc3c(c(=O)n1C2)COC(=O)[C@]3(O)CC` [CPT-11, Irinotecan], which “Changes in absorption peaks (280 nm)” value [2] is on record?
Answer: 280 nm→258 nm

Question: And the τ2 [5]?
Answer: 7.79 ns

Question: With `CC[C@@]1(O)C(=O)OCc2c1cc1n(c2=O)Cc2cc3cc(O)ccc3nc2-1` [10-HCPT, 10-Hydroxycamptothecin] as the compound, how does the “ΔΔG between experimental and theoretical binding energy” value [10] read?
Answer: ≈ 10.51 kJ·mol^−1

Question: And the Kd [1]?
Answer: 121 µM

Question: And the “Kq (bimolecular quenching constant)” value [1]?
Answer: 23.79 ×10^11 L·mol^− 1·s^− 1

Question: What about the “n (number of binding sites per BSA molecule)” value [1] of the same compound?
Answer: 0.8809

Question: What about the “Ksv (Stern-Volmer quenching constant)” value ([1]; pH 7.4) of the same compound?
Answer: 14.99 ×10^3 L·mol^− 1

Question: What about the “Stern–Volmer equation Slope” value ([1]; pH 7.4) of the same compound?
Answer: 14986.88 ± 1787.60

Question: What about the “blue shift of the maximum fluorescence emission peak of BSA (Δλmax)” value ([1]; pH 7.4) of the same compound?
Answer: 11.8 nm

Question: And the “blue shift of the UV absorption peak of BSA at 280 nm” value [2, 15]?
Answer: 2 nm

Question: What about the “Changes in absorption peaks (280 nm)” value [2, 16] of the same compound?
Answer: 280 nm→278 nm

Question: What about the Emission maximum shift [3] of the same compound?
Answer: 15 nm

Question: And the λex/λem [3]?
Answer: 225/325 and 275/325

Question: And the Kd [4, 29]?
Answer: 120 µM

Question: And the Kd [4, 30]?
Answer: 44.7 µM

Question: And the Kd [4, 31]?
Answer: 1510 µM

Question: What about the “A1 (decay amplitude)” value [5, 32] of the same compound?
Answer: 0.8806

Question: And the “A2 (decay amplitude)” value [5, 32]?
Answer: 0.1858

Question: What about the τ1 [5, 32] of the same compound?
Answer: 2.239 ns

Question: What about the τ2 [5, 32] of the same compound?
Answer: 7.483 ns

Question: What about the “τave (average fluorescence lifetime)” value [5, 33] of the same compound?
Answer: 4.41 ns
